{"source": "patent US11066396B2", "about": "(priority 2016, dated 2021)", "key": {"HDAC1": {"molecular_target": "HDAC1 (Homo sapiens (Human), UniProt Q13547)", "sequence (Q13547 whole entry)": "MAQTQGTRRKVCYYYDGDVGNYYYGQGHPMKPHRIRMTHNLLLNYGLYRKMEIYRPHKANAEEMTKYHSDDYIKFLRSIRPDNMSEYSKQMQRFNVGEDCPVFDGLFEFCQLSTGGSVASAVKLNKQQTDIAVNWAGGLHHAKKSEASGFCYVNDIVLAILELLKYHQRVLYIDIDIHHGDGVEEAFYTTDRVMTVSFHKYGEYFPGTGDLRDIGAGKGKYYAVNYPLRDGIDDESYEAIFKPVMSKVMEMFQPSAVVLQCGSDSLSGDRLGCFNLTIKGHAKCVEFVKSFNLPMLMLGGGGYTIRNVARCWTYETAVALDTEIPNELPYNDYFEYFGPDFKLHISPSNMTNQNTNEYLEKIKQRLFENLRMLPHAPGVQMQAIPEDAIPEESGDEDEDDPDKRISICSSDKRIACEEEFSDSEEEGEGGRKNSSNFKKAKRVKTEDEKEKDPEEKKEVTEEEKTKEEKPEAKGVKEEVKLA", "details": "read-out: HDAC1 IC50"}, "HDAC8": {"molecular_target": "HDAC8 (Homo sapiens (Human), UniProt Q9BY41)", "sequence (Q9BY41 whole entry)": "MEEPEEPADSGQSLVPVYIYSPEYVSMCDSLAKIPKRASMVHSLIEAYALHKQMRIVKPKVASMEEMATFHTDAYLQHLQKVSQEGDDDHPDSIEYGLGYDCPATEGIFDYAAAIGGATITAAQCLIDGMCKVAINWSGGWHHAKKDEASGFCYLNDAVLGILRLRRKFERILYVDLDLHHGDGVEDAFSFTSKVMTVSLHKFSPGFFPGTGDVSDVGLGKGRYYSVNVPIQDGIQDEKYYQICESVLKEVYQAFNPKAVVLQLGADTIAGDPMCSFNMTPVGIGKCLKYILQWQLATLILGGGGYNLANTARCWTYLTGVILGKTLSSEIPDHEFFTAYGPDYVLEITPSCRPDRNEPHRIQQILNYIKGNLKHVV", "details": "read-out: HDAC8 IC50"}, "HDAC5": {"molecular_target": "HDAC5 (Homo sapiens (Human), UniProt Q9UQL6)", "sequence (Q9UQL6 656-1122)": "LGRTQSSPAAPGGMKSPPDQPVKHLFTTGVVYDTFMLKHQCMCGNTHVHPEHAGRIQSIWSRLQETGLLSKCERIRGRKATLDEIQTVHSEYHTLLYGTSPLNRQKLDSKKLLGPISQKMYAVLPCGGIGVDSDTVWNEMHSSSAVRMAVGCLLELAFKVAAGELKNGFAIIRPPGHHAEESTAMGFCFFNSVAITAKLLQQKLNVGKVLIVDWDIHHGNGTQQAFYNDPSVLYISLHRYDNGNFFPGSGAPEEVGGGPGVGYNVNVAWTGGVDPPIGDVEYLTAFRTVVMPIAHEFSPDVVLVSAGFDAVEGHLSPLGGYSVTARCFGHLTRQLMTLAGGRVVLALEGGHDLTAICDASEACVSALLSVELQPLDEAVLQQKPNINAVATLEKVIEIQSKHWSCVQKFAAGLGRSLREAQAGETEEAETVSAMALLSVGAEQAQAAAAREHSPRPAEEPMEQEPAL", "details": "read-out: HDAC5 IC50"}}, "note": "pIC50: −log10 of the molar value.", "data": [{"smiles": "O=C1CCCC(c2ccccc2)N1c1ccc(-c2noc(C(F)(F)F)n2)cc1", "note": "(stereo not drawn) [Example 40, 6-phenyl-1-(4-(5-(trifluoromethyl)-1,2,4-oxadiazol-3-yl)phenyl)piperidin-2-one]", "values": [{"measurement": "pIC50", "setting": "HDAC1", "value": 6.39}, {"measurement": "pIC50", "setting": "HDAC8", "value": 6.10}, {"measurement": "pIC50", "setting": "HDAC5", "value": 7.47}]}, {"smiles": "O=C1CCC(c2ccccc2F)N1c1ccc(-c2noc(C(F)(F)F)n2)cc1F", "note": "(racemic) [Example 118, 1-(2-fluoro-4-(5-(trifluoromethyl)-1,2,4-oxadiazol-3-yl)phenyl)-5-(2-fluorophenyl)pyrrolidin-2-one]", "values": [{"measurement": "pIC50", "setting": "HDAC1", "value": 6.24}, {"measurement": "pIC50", "setting": "HDAC8", "value": 5.60}, {"measurement": "pIC50", "setting": "HDAC5", "value": 6.89}]}, {"smiles": "Fc1cc(COc2cncnc2)ccc1-c1noc(C(F)(F)F)n1", "note": "[Example 236, 5-({3-fluoro-4-[5-(trifluoromethyl)-1,2,4-oxadiazol-3-yl]phenyl}methoxy)pyrimidine]", "values": [{"measurement": "pIC50", "setting": "HDAC1", "value": 5.51}, {"measurement": "pIC50", "setting": "HDAC8", "value": 5.68}, {"measurement": "pIC50", "setting": "HDAC5", "value": 7.38}]}, {"smiles": "Cc1nc2ccc(F)cc2n1Cc1ccc(-c2noc(C(F)(F)F)n2)cn1", "note": "[Example 465, 6-fluoro-2-methyl-1-({5-[5-(trifluoromethyl)-1,2,4-oxadiazol-3-yl]pyridin-2-yl}methyl)-1H-benzimidazole]", "values": [{"measurement": "pIC50", "setting": "HDAC1", "value": 6.14}, {"measurement": "pIC50", "setting": "HDAC8", "value": 5.25}, {"measurement": "pIC50", "setting": "HDAC5", "value": 7.44}]}, {"smiles": "Fc1cc(COc2ccc3ncnn3c2)ccc1-c1noc(C(F)(F)F)n1", "note": "[Example 240, 6-({3-fluoro-4-[5-(trifluoromethyl)-1,2,4-oxadiazol-3-yl]phenyl}methoxy)[1,2,4]triazolo[1,5-a]pyridine]", "values": [{"measurement": "pIC50", "setting": "HDAC1", "value": 5.82}, {"measurement": "pIC50", "setting": "HDAC8", "value": 4.96}, {"measurement": "pIC50", "setting": "HDAC5", "value": 7.11}]}, {"smiles": "O=C(C1CCS(=O)(=O)CC1)N(Cc1ccc(-c2noc(C(F)(F)F)n2)cc1F)c1cccc(C(F)(F)F)c1", "note": "[Example 490, N-({2-fluoro-4-[5-(trifluoromethyl)-1,2,4-oxadiazol-3-yl]phenyl}methyl)-1,1-dioxo-N-[3-(trifluoromethyl)phenyl]-llambda~6~-thiane-4-carboxamide]", "values": [{"measurement": "pIC50", "setting": "HDAC1", "value": 6.30}, {"measurement": "pIC50", "setting": "HDAC8", "value": 5.47}, {"measurement": "pIC50", "setting": "HDAC5", "value": 6.28}]}, {"smiles": "O=C(N1CCOCC1)N(Cc1ccc(-c2noc(C(F)(F)F)n2)cn1)c1cccc(C(F)(F)F)c1", "note": "[Example 49, N-((5-(5-(trifluoromethyl)-1,2,4-oxadiazol-3-yl)pyridin-2-yl)methyl)-N-(3-(trifluoromethyl)phenyl)morpholine-4-carboxamide]", "values": [{"measurement": "pIC50", "setting": "HDAC1", "value": 6.00}, {"measurement": "pIC50", "setting": "HDAC8", "value": 5.00}, {"measurement": "pIC50", "setting": "HDAC5", "value": 5.72}]}, {"smiles": "Cc1nc(OCc2ccc(-c3noc(C(F)(F)F)n3)c(F)c2)c2cnn(C)c2n1", "note": "[Example 248, 4-({3-fluoro-4-[5-(trifluoromethyl)-1,2,4-oxadiazol-3-yl]phenyl}methoxy)-1,6-dimethyl-1H-pyrazolo[3,4-d]pyrimidine]", "values": [{"measurement": "pIC50", "setting": "HDAC1", "value": 5.59}, {"measurement": "pIC50", "setting": "HDAC8", "value": 5.59}, {"measurement": "pIC50", "setting": "HDAC5", "value": 7.23}]}, {"smiles": "CC(Oc1cc(-c2noc(C(F)(F)F)n2)ccn1)c1nc2ccccc2[nH]1", "note": "(racemic) [Example 203, 2-[1-({4-[5-(trifluoromethyl)-1,2,4-oxadiazol-3-yl]pyridin-2-yl}oxy)ethyl]-1H-benzimidazole]", "values": [{"measurement": "pIC50", "setting": "HDAC1", "value": 6.89}, {"measurement": "pIC50", "setting": "HDAC8", "value": 6.05}, {"measurement": "pIC50", "setting": "HDAC5", "value": 6.89}]}, {"smiles": "CC(C)(C)OC(=O)[C@@H]1COCC(=O)N1c1ccc(-c2noc(C(F)(F)F)n2)c(F)c1", "note": "[Example 471, tert-butyl (3S)-4-{3-fluoro-4-[5-(trifluoromethyl)-1,2,4-oxadiazol-3-yl]phenyl}-5-oxomorpholine-3-carboxylate]", "values": [{"measurement": "pIC50", "setting": "HDAC1", "value": 6.06}, {"measurement": "pIC50", "setting": "HDAC8", "value": 5.42}, {"measurement": "pIC50", "setting": "HDAC5", "value": 7.27}]}, {"smiles": "Fc1cnc(OCc2ccc(-c3noc(C(F)(F)F)n3)c(F)c2)nc1", "note": "[Example 230, 5-fluoro-2-({3-fluoro-4-[5-(trifluoromethyl)-1,2,4-oxadiazol-3-yl]phenyl}methoxy)pyrimidine]", "values": [{"measurement": "pIC50", "setting": "HDAC1", "value": 5.07}, {"measurement": "pIC50", "setting": "HDAC8", "value": 6.27}, {"measurement": "pIC50", "setting": "HDAC5", "value": 6.70}]}, {"smiles": "O=C(COc1cc(-c2noc(C(F)(F)F)n2)ccn1)N1CCOCC1", "note": "[Example 190, 1-Morpholino-2-((4-(5-(trifluoromethyl)-1,2,4-oxadiazol-3-yl)pyridin-2-yl)oxy)ethan-1-one]", "values": [{"measurement": "pIC50", "setting": "HDAC1", "value": 5.66}, {"measurement": "pIC50", "setting": "HDAC8", "value": 5.96}, {"measurement": "pIC50", "setting": "HDAC5", "value": 6.26}]}]}
